Values joined by “and” are separate entries in the source; they are usually repeats but may differ in a detail not shown here. Equal values may be shown once. Read-outs that look alike come from different tables or passages of the source.
What was measured:
PfLysRS [1] = biological target: T1, PfLysRS (Plasmodium falciparum, UniProt Q8IDJ8); experiment: Thermal shift assay; format: binding
T1 construct: PfLysRS (77–583) was constructed in the vector pET20b, with a C-terminal 6×His tag; 6xHis (C); made in house; host or cells: E. coli BL21 (DE3)
Method: PfLysRS protein was prepared at 10 μM concentration in a buffer containing 20 mM Tris pH 8.0, 200 mM NaCl, 500 μM L-lysine, and 200 μM Compound. Aliquots (18 µL) were added to a 96-well PCR plate and incubated at ambient temperature for 10 min. SYPRO Orange dye (Sigma) was diluted in the assay buffer containing 20 mM Tris pH 8.0 and 200 mM NaCl to a 40× concentration, and 2 µL of the 40× dye solution was added to the PCR plate to bring the final assay volume to 20 µL. After complete mixing, the final solutions were heated from 25 to 90 °C at a rate of 0.015 °C per sec, and fluorescence signals were monitored by QuantStudio 3 (Applied Biosystems by Thermo Fisher Scientific).

PfLysRS [2] = biological target: T1, PfLysRS; experiment: Surface plasmon resonance (SPR) assay; format: binding; conditions: immobilized PfLysRS; for Kd: 1 mM L-lysine in running buffer, read-out: dissociation constant (KD)
Method: PfLysRS was chemically immobilized on a Biacore CM5 sensorchip (immobilization level ~20000 resonance unit/RU) at pH 5.0 according to the immobilization kit (GE Healthcare). PfLysRS (1.7 nM) was captured for 90 s at a flow of 30 µL·min^−1. Affnity between PfLysRS and compounds was measured by SPR on a Biacore 8 K (GE Healthcare) at 25 °C with a running buffer (0.02 M phosphate buffer pH 7.4, 2.7 mM KCl, 0.137 M NaCl, 0.05% Tween 20, with 1 mM L-lysine). The association time was 90 s, the dissociation time was 120 s, and the flowrate was 30 µL·min^−1. Kinetic evaluation of the interaction between LysRS and compounds was performed by global fitting of the data to a 1:1 interaction model using Biacore Evaluation Software 3.1 (GE Healthcare).

PfLysRS [3] = biological target: T1, PfLysRS; experiment: ATP hydrolysis assay (Kinase-Glo) on PfLysRS; format: biochemical; conditions: for LogIC50 (best-fit value): log of nM
Method: (§1) The ATP hydrolysis assays were based on Kinase-Glo luminescent Kit (Promega). The experiment was carried out in Corning 384-well white flat bottom microplates. The buffer in the reaction contains 25 mM Hepes pH 7.4, 140 mM NaCl, 40 mM MgCl2, 30 mM KCl, 1 mM TCEP, 0.1 mg·mL^−1 BSA, and 0.004% Tween-20. The compounds were diluted to different concentrations with a 5-fold gradient.
For LysRS assays, DMSO was added into negative control wells and L-lysine was removed in positive control wells. 100 nM LysRS in 2.5 μL Hepes buffer was mixed with compounds and incubated for 10 min. Then 5 μL substrate mixture (2 μM ATP, 10 μM L-lysine and 31 nM pyrophosphatase) was added to start the reaction at 37 °C and incubated for 6 h.
(§2) When the reaction reaches the planned time, 10 μL diluted Kinase-Glo reagent (1/50 diluted with a buffer containing 50 mM Tris pH 7.5 and 5% glycerol) was added and incubated for 15 min. Luminescence was measured on the Magellan plate reader (Tecan) and nonlinear regression was performed with Prism (GraphPad).

ALK = biological target: T2, ALK (Homo sapiens, UniProt Q9UM73); experiment: ATP hydrolysis assay (Kinase-Glo) on ALK; format: biochemical; conditions: for LogIC50 (best-fit value): log of nM
T2 construct: The plasmid pCDNA3.1_8×His-tev-ALK (kinase domain, 1068–1410) was constructed; 8xHis (N); TEV site (N); made in house; host or cells: Expi293 cells (transient transfection)
Method: as §1
For ALK assays, DMSO was added into negative control wells. 100 nM ALK in 2.5 μL Hepes buffer was mixed with compounds and incubated for 10 min. Then 5 μL substrate (2 μM ATP) was added to start the reaction at 37 °C and incubated for 6 h.
as §2

[4] = system: erythrocytic-stage P. falciparum 3D7 parasites; experiment: In vitro Plasmodium growth assay; format: cell-based, Plasmodium falciparum; conditions: for HillSlope (best-fit value): Plasmodium falciparum 3D7; for LogIC50 (best-fit value): Plasmodium falciparum 3D7, log of nM; for IC50: Plasmodium falciparum 3D7, source data, read-out: IC50 (best-fit value); for EC50: Plasmodium falciparum, 3D7, 72 h
Method: Parasites were cultured in human O+ erythrocytes according to standard procedures. To prepare the >80% ring stage parasites, asynchronous cultures of parasites were pretreated with 5% sorbitol, and P. falciparum strain 3D7 at the mid-ring stage (6–10 h post-invasion) was used to test antimalarial effects in 96-well plates. Parasites were incubated in a 96-well plate with compound containing 1% parasitemia and, 2% hematocrit for a total volume of 200 μL. […] A relevant DMSO concentration was used as a negative control, and cultured erythrocytes without Plasmodium served as a positive control. The parasites were allowed to grow for 72 h at 37 °C with 5% CO2, 5% O2, and 90% N2. After 72 h, 100 μL of lysis buffer (0.12 mg·mL^−1 Saponin, 0.12% Triton X-100, 30 mM Tris-HCl pH 8.0, and 7.5 mM EDTA) with 5× SYBR Green I (Invitrogen; supplied in 10000× concentration) was added to each well of the plate. The plates were then incubated for 2 h in the dark prior to reading the fluorescence signal at 485 nm excitation and 535 nm emission. The percentage of inhibition was calculated by (NC-fluorescence) × 100/(NC-PC).

[5] = Solubility noted in the cytotoxicity assay; format: physicochemical; conditions: highest concentration limited to 100 μM in cell medium
Method: Cell viability was analyzed by Cell Counting Kit-8 (CCK8, ApexBio) according to the manufacturer’s protocols. Cells were seeded and cultured at a density of 2.5 × 10^3 cells per well in 100 μL medium in 96-well microplates (Corning). Then, the cells were treated with different concentrations of compound (0, 1 μM, 3 μM, 10 μM, 100 μM, 300 μM). […] After treatment for 72 h, 10 μL of CCK-8 reagent was added to each well and then cultured for 4 h. All experiments were performed in pentaplicate. The absorbance was analyzed at 450 nm using a microplate reader (Tecan) using medium without cells as blanks. Data was processed using GraphPad Prism 9.

[6] = +Lysine, sheet Figure 6B, in °C (unit assumed)
[7] = PfLysRS, source data, read-out: IC50 (best-fit value)
[8] = ALK, source data, read-out: IC50 (best-fit value)
[9] = P. falciparum 3D7, Log(Concentration)/nM 2.290, single repeats
[10] = P. falciparum 3D7, Log(Concentration)/nM 2.592, single repeats
[11] = P. falciparum 3D7, Log(Concentration)/nM 2.893, single repeats
[12] = P. falciparum 3D7, Log(Concentration)/nM 3.193, single repeats
[13] = P. falciparum 3D7, Log(Concentration)/nM 3.496, single repeats
[14] = P. falciparum 3D7, Log(Concentration)/nM 3.796, single repeats
[15] = P. falciparum 3D7, Log(Concentration)/nM 4.097, single repeats
[16] = P. falciparum 3D7, Log(Concentration)/nM 4.398, single repeats
[17] = P. falciparum 3D7, Log(Concentration)/nM 4.699, single repeats
[18] = P. falciparum 3D7, Log(Concentration)/nM 5.000, single repeats

T1 sequence (Q8IDJ8 entry or part of it): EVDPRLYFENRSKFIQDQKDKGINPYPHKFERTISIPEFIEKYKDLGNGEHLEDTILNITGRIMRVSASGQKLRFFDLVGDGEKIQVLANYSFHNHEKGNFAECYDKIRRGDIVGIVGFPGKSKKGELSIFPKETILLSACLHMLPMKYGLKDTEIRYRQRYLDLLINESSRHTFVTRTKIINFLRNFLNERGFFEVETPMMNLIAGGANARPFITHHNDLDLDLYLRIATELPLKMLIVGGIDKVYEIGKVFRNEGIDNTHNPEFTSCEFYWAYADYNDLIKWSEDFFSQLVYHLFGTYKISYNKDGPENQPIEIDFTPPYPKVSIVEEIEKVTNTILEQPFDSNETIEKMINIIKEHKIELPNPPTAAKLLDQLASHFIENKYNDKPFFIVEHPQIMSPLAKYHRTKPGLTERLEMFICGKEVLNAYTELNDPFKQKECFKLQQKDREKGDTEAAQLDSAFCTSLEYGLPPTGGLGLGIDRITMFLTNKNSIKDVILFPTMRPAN
T2 sequence (Q9UM73 1068-1410): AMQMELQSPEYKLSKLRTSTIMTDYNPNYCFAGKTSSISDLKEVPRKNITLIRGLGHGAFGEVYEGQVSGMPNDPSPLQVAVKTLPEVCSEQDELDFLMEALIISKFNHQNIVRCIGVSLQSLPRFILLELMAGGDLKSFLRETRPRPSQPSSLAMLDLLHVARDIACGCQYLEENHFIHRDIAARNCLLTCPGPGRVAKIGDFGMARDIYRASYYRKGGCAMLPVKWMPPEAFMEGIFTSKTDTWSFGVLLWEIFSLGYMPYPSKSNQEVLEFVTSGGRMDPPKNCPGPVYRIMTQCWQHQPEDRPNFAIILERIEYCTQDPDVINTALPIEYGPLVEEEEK

Row | Tm of PfLysRS, Average (PfLysRS [1]; +Lysine) [°C] | Tm of PfLysRS, Average (PfLysRS [1]; -Lysine) [°C] | ΔTm at 200 µM (PfLysRS [1]; in the absence of L-lysine) [°C] | ΔTm at 200 µM (PfLysRS [1]; in the presence of L-lysine) [°C] | koff (PfLysRS [2]) [s⁻¹] | kon (PfLysRS [2]) [M/s] | Kd (PfLysRS [2]) [nM] | HillSlope (best-fit value) (PfLysRS [3]; PfLysRS) | LogIC50 (best-fit value) (PfLysRS [3]; PfLysRS) | IC50 (PfLysRS [3]; [7]) [nM] | IC50 (PfLysRS [3]; read-out: IC50 against PfLysRS) [nM] | HillSlope (best-fit value) (ALK; ALK) | LogIC50 (best-fit value) (ALK; ALK) | IC50 (ALK; [8]) [nM] | IC50 (ALK; read-out: IC50 against ALK) [nM] | SMILES | Tm of PfLysRS, single repeat (PfLysRS [1]; +Lysine) | Tm of PfLysRS, single repeat (PfLysRS [1]; -Lysine) | % Inhibition [4, 9] | % Inhibition [4, 10] | % Inhibition [4, 11] | also measured
1 | 54.438 | 53.158 | 11.7 | 11.8 | 0.0144 | 907000 | 15.9 | 1.442 | 2.296 | 198 | 198 | 0.6864 | 4.281 | 19100 | > 19100 | COc1ccc(OC)c(Nc2ncnc(Nc3ccccc3S(=O)(=O)C(C)C)n2)c1 [Compound 36] | 54.731 °C and 54.237 °C and 54.854 °C and 53.929 °C | 53.374 °C and 52.819 °C and 53.251 °C and 53.189 °C | -1.297% and 4.596% and -3.299% | 14.49% and 16.27% and 6.82% | 56.52% and 50.3% and 49.85% | △Tm of PfLysRS (PfLysRS [1]; +Lysine, sheet Figure 6B): 10.644; Tm of PfLysRS, Average (PfLysRS [1]; [6]): 55.664; Tm of PfLysRS, single repeat (PfLysRS [1]; [6]): 55.710 and 55.464 and 56.018; % Inhibition [4, 12]: 89.44% and 83.77% and 86.88%; % Inhibition [4, 13]: 95.44% and 97.78% and 98.22%; % Inhibition [4, 14]: 97.55% and 97.66% and 100.2%; % Inhibition [4, 15]: 99.56% and 100.2% and 100.1%; % Inhibition [4, 16]: 98.55% and 100.8% and 100.2%; % Inhibition [4, 17]: 98.67% and 100.8% and 100.6%; % Inhibition [4, 18]: 90.1% and 96% and 96.11%; HillSlope (best-fit value) [4]: 2.726; LogIC50 (best-fit value) [4]: 2.867; IC50 [4]: 736 nM; EC50 [4]: 736 nM; solubility [5]: poor solubility
2 | 52.704 | 50.586 | 7.6 | ~9 | 0.0137 | 218000 | 62.8 | 0.6107 | 2.959 | 910 | 910 | 1.505 | 2.726 | 532 | 532 | COc1ccccc1Nc1ncnc(Nc2ccccc2S(=O)(=O)C(C)C)n1 [Compound 38] | 52.703 °C and 52.673 °C and 52.642 °C and 52.796 °C | 50.911 °C and 50.756 °C and 50.045 °C and 50.632 °C | 0.5244% and -0.5244% | 0.1049% and 1.993% | 5.139% and 2.098% | % Inhibition [4, 12]: 11.12% and 9.229%; % Inhibition [4, 13]: 30.2% and 31.57%; % Inhibition [4, 14]: 64.29% and 65.65%; % Inhibition [4, 15]: 93.45% and 91.87%; % Inhibition [4, 16]: 99.84% and 98.9%; % Inhibition [4, 17]: 100.4% and 99.63%; % Inhibition [4, 18]: 98.16% and 95.65%; HillSlope (best-fit value) [4]: 2.23; LogIC50 (best-fit value) [4]: 3.663; IC50 [4]: 4610 nM; EC50 [4]: 4610 ± 120 nM; solubility [5]: poor solubility

Source: article PMC11189516, “Structure-guided conversion from an anaplastic lymphoma kinase inhibitor into Plasmodium lysyl-tRNA synthetase selective inhibitors” (Communications Biology, 2024)
